Data reported in paper PMC9747113 (Clinical and Translational Science, 2022).
“Also recorded” adds a separate entry of the source.

Key:
[1] = Tolerability in fed and fasted states; type: in vivo; settings: fed vs fasted
BTK [2] = settings: cited from earlier work
[3] = Population PK model of evobrutinib plasma concentration-time data
BTK [4] = settings: 2 h after the first dose; cited from earlier work
[5] = between-participant variability, variance estimate
[6] = final population PK model, oral tablet

BPV ALAG, Estimate (RSE %) [3, 5]: 0.156 (40.2)
BPV CL/F, Estimate (RSE %) [3, 5]: 0.0958 (23.0)
BPV D 1 Fasted, Estimate (RSE %) [3, 5]: 1.39 (47.2)
BPV D 1 Fed, Estimate (RSE %) [3, 5]: 1.39 (47.2)
BPV Q/F, Estimate (RSE %) [3, 5]: 1.17 (24.1)
BPV V2/F, Estimate (RSE %) [3, 5]: 0.627 (31.9)
BPV V3/F, Estimate (RSE %) [3, 5]: 1.86 (22.7)
ALAG (absorption lag time) [3, 6]: 0.235 h
CL/F (apparent clearance) [3, 6]: 273 L/h
K a (first-order absorption rate constant) [3, 6]: 0.784 h⁻¹
V3/F (apparent peripheral volume of distribution) [3, 6]: 446 L
Vd/F ([3]; human, in vivo, po): 61.1 L
Increase of bioavailability with food compared with fasted ([3]; low-fat meal vs fasted): 49%
SMILES: C=CC(=O)N1CCC(CNc2ncnc(N)c2-c2ccc(Oc3ccccc3)cc2)CC1 [evobrutinib, Evobrutinib]
Tolerability in fed and fasted states [1]: equivalent
BTKO, median at trough (BTK [2]; after 14 days of 25 mg q.d. while fasted): 88%
BTK occupancy at 96 h postdose (BTK [2]; single doses ≥100 mg while fasted): > 50%
maximum BTK occupancy (BTK [2]; within 4 h of single doses ≥200 mg while fasted): > 90%
Effect of ethnicity (Japanese vs non-Japanese) on PK parameters ([3]; covariate test): no difference; also recorded: not a significant covariate
BTKO in peripheral blood (BTK [4]): high degree of BTKO
